# Assay results as given in article PMC9182141, “Assay Development and Identification of the First Plasmodium falciparum 7,8-dihydro-6-hydroxymethylpterin-pyrophosphokinase Inhibitors” (Molecules, 2022).
# Where a name gives a salt, the structure may show the parent alone.
# Experiments:
# PfHPPK-GFP [1] = target: T1, PfHPPK-GFP (Plasmodium falciparum, UniProt Q25704); test: DSF-GTP (GFP-tagged protein differential scanning fluorimetry) thermal shift; type: binding; conditions: read-out: ΔTm (°C)
# Description: In a preliminary screening experiment, buffer conditions were investigated, searching for conditions that provide the largest thermal shift in the presence of 1 mM ATP. DSF curves were recorded under a total of 17 different conditions, with variations in buffer nature and pH, salts nature and concentration, effect of reducing agent, MgSO4 and glycerol.
# From there, protein binding properties of the hit compounds were assessed experimentally using the developed DSF-GTP assay. A total of 54 compounds were tested, including virtual screening hits and closely related structures. According to our protocol, each compound was mixed with PfHPPK-GFP and submitted to a temperature gradient from 30 °C to 90 °C at 1 °C/min while GFP fluorescence was recorded. The first derivative of the resulting curve was used to determine the melting temperature (Tm). For each set of experiments, a negative control containing DMSO was added, and ΔTm values were calculated for each compound vs. the DMSO control. […] Two compound families were identified as the most promising by our DSF-GTP assay: 5-phenylazo-2,4-diaminopyrimidines (series 1) and phenyltriazolyl-2-amino-4-pyrimidinone (series 2). In series 2, linkers of different lengths that separate the phenyl triazolyl and the pyrimidine moieties were included.
# In a typical DSF-GTP experiment, a master mix containing buffer and PfHPPK-GFP was prepared in a microcentrifuge tube, corresponding to a final protein concentration of 20 μg/mL. Ligands of interest were dispensed in low-profile 96-well plates (Bio-Rad) to 1 mM final concentration, and the master mix was dispensed to a final volume of 50 μL per well. In these conditions, DMSO content was maintained constant at 2%. The microplate was sealed with adhesive film and mixed by shaking for 2 min at 800 rpm at RT. The microplate was then submitted to a DSF run on a CFX96 RT-PCR (Bio-Rad, Hercules, CA, USA). DSF program was designed by starting with a 3 min equilibration phase at 30 °C, followed by a temperature gradient of 1 °C/min until 90 °C, recording fluorescence every 0.5 °C. Fluorescence was recorded using the FAM channel (λex = 450–490 nm, λem = 510–530 nm). Curves were fitted using the Precision Melt Analysis software (Bio-Rad).
# PfHPPK-GFP [2] = target: T1, PfHPPK-GFP; test: KinaseGlo enzyme inhibition assay; type: biochemical; conditions: 1 mM compound, 10 μM HMDP and 10 μM ATP, 20 min at RT; read-out: Inhib. at 1 mM (%)
# Description: For all the compounds displaying a measurable change of Tm, PfHPPK inhibition was recorded at 10 μM HMDP and ATP and 1 mM compound using the KinaseGlo assay. These conditions were chosen to be in the reported Km range for both HMDP and ATP substrates, enabling detection of both competitive and uncompetitive inhibitors. Compounds were incubated with HMDP, ATP and HPPK-GFP for 20 min at RT, followed by addition of the KinaseGlo reagent. After 10 min equilibration, luminescence was recorded, which directly reflects the quantity of ATP left in solution at the end of the reaction. Percentages of inhibition were calculated based on a DMSO positive control and a negative control lacking HPPK-GFP. Compounds structures, ΔTm and levels of inhibition appear in Table 1 and Table 2.
# PfHPPK-GFP inhibition assay was carried using the KinaseGlo Plus kit (Promega, Madison, WI, USA). In a black 96-well plate were dispensed test compounds (1 μL of 50 mM DMSO stock), master mix (100 mM Tris pH 9, 10 mM β-mercapto ethanol, 10 mM MgSO4, 0.01% w/v BSA, 10 μM HMDP and 10 μM ATP). Reaction was initiated by addition of 2 μg of enzyme, reaching a total reaction volume of 50 μL, and reaction was allowed to proceed for 20 min at RT shaking at 300 rpm. Reaction was then quenched by addition of 50 μL KinaseGlo reagent and allowed to equilibrate for 10 min at RT shaking at 300 rpm. Luminescence was recorded on a Biotek Synergy H1 plate reader (Agilent, Santa Clara, CA, USA) using an integration time of 1 s per well. Percentage of inhibition was calculated related to a positive control experiment (no enzyme added) and a negative control experiment (no inhibitor added).
# [3] = system: Plasmodium falciparum TM4/8.2 (drug sensitive); test: Antimalarial activity, [3H]-hypoxanthine incorporation assay, TM4/8.2; type: cell-based; conditions: P. falciparum TM4/8.2 (drug sensitive), when no IC50 could be determined, highest tested concentration noted
# Description: (§1) Finally, the various hit compounds were tested for their antimalarial activity against P. falciparum TM4/8.2 [26] and V1/S [27] strains. Parasite cultures were treated with test compounds at different concentrations, and antimalarial activity was measured using [3H]-hypoxanthine incorporation assay, according to our previously reported protocol. […] IC50 values could not be measured for other compounds. At this stage, there is no explanation for the difference in antiparasitic activity observed between TM4/8.2 and V1/S strains, and more investigations would be needed to conclude on this effect.
# (§2) Compounds were tested for their antimalarial activity against P. falciparum TM4/8.2 [26] and V1/S [27] strains according to our previously reported protocol. In brief, parasite strains were maintained continuously in human erythrocytes in RPMI1640 supplemented with 25 mM HEPES pH 7.4, 0.2% NaHCO3, 40 µg/mL gentamicin and 8% human serum at 37 °C under 3% CO2. For in vitro antimalarial assay, parasite was treated with serial dilutions of the inhibitors, and parasite survival was determined using a modified microdilution radioisotope technique.
# [4] = system: Plasmodium falciparum V1/S (drug resistant); test: Antimalarial activity, [3H]-hypoxanthine incorporation assay, V1/S; type: cell-based; conditions: P. falciparum V1/S (drug resistant), when no IC50 could be determined, highest tested concentration noted
# Description: as §1, §2
# [5] = system: Vero cell line (African green monkey kidney cells); test: Cytotoxicity, sulforhodamine B assay, Vero cells; type: cell-based; conditions: Chlorocebus sabaeus, 72 h, when no IC50 could be determined, highest tested concentration noted
# [6] = system: KB cell line (human epithelial carcinoma cells); test: Cytotoxicity, sulforhodamine B assay, KB cells; type: cell-based; conditions: 72 h, when no IC50 could be determined, highest tested concentration noted
# [7] = Metabolic stability in human liver microsomes; conditions: for microsomal CLint: human, liver microsomes
# Description: (§3) Intrinsic clearance was also measured in both human and rat liver microsomes in order to assess sensitivity to metabolic degradation.
# (§4) Metabolic stability of test compounds was determined in human and rat liver microsomes. The assay was adapted from a previously published method. Briefly, the test compounds were mixed with liver microsomes, and the metabolic reactions were initiated by the addition of NADPH. Acetonitrile containing an internal standard (labetalol) was added at 0, 5, 10, 30, and 60 min to stop the reactions. Samples were processed, and the remaining compounds in the reactions were detected using a LC-MS/MS. Distribution coefficient, solubility and polar surface area were predicted using Marvin software. Partition coefficient was predicted using ACD/Labs software.
# [8] = Metabolic stability in rat liver microsomes; conditions: for microsomal CLint: rat, liver microsomes
# Description: as §3, §4
# PfHPPK = system: PfHPPK; set-up: method as in PMID 19631695; conditions: substrate of monofunctional PfHPPK; cited from earlier work
# T1 sequence (Q25704 entry or part of it): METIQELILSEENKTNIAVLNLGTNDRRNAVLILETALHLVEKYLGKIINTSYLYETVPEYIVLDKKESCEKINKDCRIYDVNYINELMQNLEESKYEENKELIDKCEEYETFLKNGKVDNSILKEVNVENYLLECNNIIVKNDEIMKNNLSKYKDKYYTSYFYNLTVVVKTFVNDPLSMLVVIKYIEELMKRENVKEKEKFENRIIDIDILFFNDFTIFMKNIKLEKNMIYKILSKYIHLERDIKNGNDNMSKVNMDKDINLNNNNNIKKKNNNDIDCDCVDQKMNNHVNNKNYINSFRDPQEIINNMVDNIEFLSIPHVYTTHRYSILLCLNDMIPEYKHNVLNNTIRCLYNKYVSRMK
structure (smiles),measurement,setting,value
"COc1nc(N)nc(N)c1/N=N/c1cccc([N+](=O)[O-])c1 [Compound 1, (E)-6-Methoxy-5-((3-nitrophenyl)diazenyl)pyrimidine-2,4-diamine]",ΔTm at 1000 µM,PfHPPK-GFP [1],-1 °C
same,inhibition at 1000 µM,PfHPPK-GFP [2],2.5 ± 1.4%
same,IC50,[3],> 100 µM
same,IC50,[4],21 µM
same,IC50,[4]; Plasmodium falciparum,21 µM
same,IC50,[5],> 100 µM
same,IC50,[6],> 100 µM
"COC(=O)c1cccc(/N=N/c2c(N)nc(N)nc2Cl)c1 [Compound 2, Methyl (E)-3-((2,4-diamino-6-chloropyrimidin-5-yl)diazenyl) benzoate]",ΔTm at 1000 µM,PfHPPK-GFP [1],-1 °C
same,inhibition at 1000 µM,PfHPPK-GFP [2],11 ± 4.8%
same,IC50,[3],> 100 µM
same,IC50,[4],89.2 µM
same,IC50,[4]; Plasmodium falciparum,89.2 µM
same,IC50,[5],> 100 µM
same,IC50,[6],> 100 µM
"COc1nc(N)nc(N)c1/N=N/c1cccc(C(=O)O)c1 [Compound 3, (E)-3-((2,4-Diamino-6-methoxypyrimidin-5-yl)diazenyl) benzoic acid]",ΔTm at 1000 µM,PfHPPK-GFP [1],-1 °C
same,inhibition at 1000 µM,PfHPPK-GFP [2],23.3 ± 4.8%
same,microsomal CLint,[7],< 3 µL/min/mg
same,microsomal CLint,[8],< 3 µL/min/mg
same,IC50,[3],> 50 µM
same,IC50,[4]; Plasmodium falciparum,> 50 µM
same,IC50,[5],> 100 µM
same,IC50,[6],> 100 µM
"Nc1nc(N)c(/N=N/c2ccccc2)c(N)n1 [Compound 4, (E)-5-(Phenyldiazenyl)pyrimidine-2,4,6-triamine]",ΔTm at 1000 µM,PfHPPK-GFP [1],-1 °C
same,inhibition at 1000 µM,PfHPPK-GFP [2],46 ± 7.5%
same,microsomal CLint,[7],363 µL/min/mg
same,microsomal CLint,[8],82.4 µL/min/mg
same,IC50,[3],75.4 µM
same,IC50,[4]; Plasmodium falciparum,> 50 µM
same,IC50,[5],29.6 µM
same,IC50,[6],62.4 µM
"Nc1nc(N)c(/N=N/c2cccc(C(=O)O)c2)c(N)n1 [Compound 5, (E)-3-((2,4,6-Triaminopyrimidin-5-yl)diazenyl)benzoic acid]",ΔTm at 1000 µM,PfHPPK-GFP [1],-1 °C
same,inhibition at 1000 µM,PfHPPK-GFP [2],14.6 ± 3.2%
same,IC50,[3],> 10 µM
same,IC50,[4]; Plasmodium falciparum,> 10 µM
"Cc1nc(N)[nH]c(=O)c1Cc1cn(-c2ccc(C(=O)O)cc2)nn1 [Compound 6, 2-Amino-6-methyl-5-((1-(4-(carboxy)phenyl)-1H-1,2,3-triazol-4-yl)methyl)pyrimidin-4(3H)-one]",ΔTm at 1000 µM,PfHPPK-GFP [1],-1 °C
same,inhibition at 1000 µM,PfHPPK-GFP [2],1.8 ± 0.6%
same,IC50,[3],> 25 µM
same,IC50,[4]; Plasmodium falciparum,> 25 µM
same,IC50,[5],> 25 µM
same,IC50,[6],> 25 µM
"Cc1nc(N)[nH]c(=O)c1Cc1cn(-c2cccc(C(=O)O)c2)nn1 [Compound 7, 2-Amino-6-methyl-5-((1-(3-(carboxy)phenyl)-1H-1,2,3-triazol-4-yl)methyl)pyrimidin-4(3H)-one]",ΔTm at 1000 µM,PfHPPK-GFP [1],-1 °C
same,inhibition at 1000 µM,PfHPPK-GFP [2],9.2 ± 1.5%
same,IC50,[3],> 25 µM
same,IC50,[4]; Plasmodium falciparum,> 25 µM
same,IC50,[5],> 25 µM
same,IC50,[6],> 25 µM
"CCc1nc(N)[nH]c(=O)c1Cc1cn(-c2ccc(C(=O)O)cc2)nn1 [Compound 8, 2-Amino-6-ethyl-5-((1-(4-(carboxy)phenyl)-1H-1,2,3-triazol-4-yl)methyl)pyrimidin-4(3H)-one]",ΔTm at 1000 µM,PfHPPK-GFP [1],-1.2 ± 0.3 °C
same,inhibition at 1000 µM,PfHPPK-GFP [2],6.9 ± 2%
same,IC50,[3],> 50 µM
same,IC50,[4]; Plasmodium falciparum,> 50 µM
same,IC50,[5],> 50 µM
same,IC50,[6],> 50 µM
"CCc1nc(N)[nH]c(=O)c1Cc1cn(-c2cccc(C(=O)O)c2)nn1 [Compound 9, 2-Amino-6-ethyl-5-((1-(3-(carboxy)phenyl)-1H-1,2,3-triazol-4-yl)methyl)pyrimidin-4(3H)-one]",ΔTm at 1000 µM,PfHPPK-GFP [1],-1 °C
same,inhibition at 1000 µM,PfHPPK-GFP [2],16.4 ± 2.9%
same,IC50,[3],> 50 µM
same,IC50,[4]; Plasmodium falciparum,> 50 µM
same,IC50,[5],> 50 µM
same,IC50,[6],> 50 µM
"CCc1nc(N)[nH]c(=O)c1Cc1cn(-c2cccc([N+](=O)[O-])c2)nn1 [Compound 10, 2-Amino-6-ethyl-5-((1-(3-(nitro)phenyl)-1H-1,2,3-triazol-4-yl)methyl)pyrimidin-4(3H)-one hydrochloride]",ΔTm at 1000 µM,PfHPPK-GFP [1],-1.2 ± 0.3 °C
same,inhibition at 1000 µM,PfHPPK-GFP [2],12.1 ± 4%
same,IC50,[3],> 50 µM
same,IC50,[4]; Plasmodium falciparum,> 50 µM
same,IC50,[5],> 50 µM
same,IC50,[6],> 50 µM
"CCc1nc(N)[nH]c(=O)c1CCc1cn(-c2ccc(C(=O)O)cc2)nn1 [Compound 11, 2-Amino-6-ethyl-5-(2-(1-(4-(carboxy)phenyl)-1H-1,2,3-triazol-4-yl)ethyl)pyrimidin-4(3H)-one hydrochloride]",ΔTm at 1000 µM,PfHPPK-GFP [1],-1.3 ± 0.3 °C
same,inhibition at 1000 µM,PfHPPK-GFP [2],34.9 ± 5.5%
same,microsomal CLint,[7],< 3 µL/min/mg
same,microsomal CLint,[8],6.91 µL/min/mg
same,IC50,[3],> 50 µM
same,IC50,[4]; Plasmodium falciparum,> 50 µM
same,IC50,[5],> 50 µM
same,IC50,[6],> 50 µM
"CCc1nc(N)[nH]c(=O)c1CCc1cn(-c2cccc(C(=O)O)c2)nn1 [Compound 12, 2-Amino-6-ethyl-5-(2-(1-(3-(carboxy)phenyl)-1H-1,2,3-triazol-4-yl)ethyl)pyrimidin-4(3H)-one hydrochloride]",ΔTm at 1000 µM,PfHPPK-GFP [1],-1.3 ± 0.3 °C
same,inhibition at 1000 µM,PfHPPK-GFP [2],24.5 ± 2.3%
same,IC50,[3],> 50 µM
same,IC50,[4]; Plasmodium falciparum,> 50 µM
same,IC50,[5],> 50 µM
same,IC50,[6],> 50 µM
"CCc1nc(N)[nH]c(=O)c1CCCc1cn(-c2ccc(C(=O)O)cc2)nn1 [Compound 13, 2-Amino-6-ethyl-5-(3-(1-(4-(carboxy)phenyl)-1H-1,2,3-triazol-4-yl)propyl)pyrimidin-4(3H)-one hydrochloride]",ΔTm at 1000 µM,PfHPPK-GFP [1],-1.5 °C
same,inhibition at 1000 µM,PfHPPK-GFP [2],24.9 ± 3.1%
same,microsomal CLint,[7],< 3 µL/min/mg
same,microsomal CLint,[8],7.38 µL/min/mg
same,IC50,[3],> 50 µM
same,IC50,[4]; Plasmodium falciparum,> 50 µM
same,IC50,[5],> 50 µM
same,IC50,[6],> 50 µM
"CCc1nc(N)nc(N)c1OCCCOc1ccccc1CCC(=O)O [Compound P218, reference compound]",CLint (HLM),"[7]; human liver microsomes, NADPH",<3 µL/min/mg
same,CLint (RLM),"[8]; rat liver microsomes, NADPH",<3 µL/min/mg
"Nc1nc(O)c2c(n1)NCC(CO)=N2 [HMDP, 2-amino-4-hydroxy-6-hydroxymethyl-7,8-dihydropteridine]",Km,PfHPPK,2.1 µM
